Test results as given in EP4671262A1, “NOVEL PEPTIDE EXHIBITING SKIN CONDITION IMPROVEMENT ACTIVITY AND COSMETIC COMPOSITION CONTAINING SAME” (Daebong LS Co., Ltd., priority 2023, dated 2024).

Columns and labels:
B16F10 cells = experiment: Melanin synthesis inhibition in α-MSH-stimulated melanocytes; type: cell-based, Mouse; settings: 72 hours, α-MSH alone = 100
Description: Mouse-derived melanocytes (B16F10 cells) were obtained from the American Type Culture Collection (ATCC) and used. The cells were cultured in Dulbecco's Modified Eagle's Medium (DMEM) supplemented with 1% penicillin-streptomycin and 10% fetal bovine serum (FBS) at 37 °C in a 5% CO2 incubator, and subcultured every 3 to 4 days.
B16F10 cells were seeded at 6.0 × 10^4 cells/well in a 6-well plate and cultured for 24 hours at 37 °C in a 5% CO2 incubator. The culture medium was then replaced with phenol red-free, serum-free DMEM, followed by treatment with α-MSH, a melanin production-inducing hormone, and the peptide from the above Preparation Example at concentrations ranging from 1 to 100 µM. The cells were incubated for 72 hours, after which they were collected and lysed with 1 N NaOH in an 80 °C heating block to dissolve intracellular melanin. The absorbance of the resulting solution was measured at 490 nm. The control group was treated with arbutin at a concentration of 500 µg/mL.

NHDF cells = experiment: Procollagen Type I Peptide (PIP) production, EIA of culture supernatant; type: cell-based, Human; settings: 24 hours, untreated group = 100
Description: Normal Human Dermal Fibroblasts (NHDF) were obtained from Lonza (Lonza Walkersville, Inc.) and cultured in FBM (Fibroblast Basal Medium) supplemented with 0.1% hFGF-B, insulin, GA-1000, and 2% FBS at 37°C in a 5% CO2 incubator. Subculture was performed every 2 to 3 days.
NHDF cells were seeded at 2.0 × 10^4 cells/well in a 24-well plate and incubated for 24 hours at 37°C in a 5% CO2 incubator. After incubation, the culture medium was replaced with serum-free FBM, and the peptide prepared in the above Example was applied at concentrations of 1-100 µM, followed by incubation for 24 hours. The supernatant from each experimental group was collected, and the amount of procollagen released into the medium was measured. The positive control group was treated with ascorbic acid at a concentration of 0.001 v/v%. Measurement of procollagen levels was performed using a Procollagen Type I Peptide (PIP) EIA Kit (Takara Biomedical Co.) according to the manufacturer's protocol. The quantitative results of procollagen type I peptide production following treatment with the peptide of the Example are shown in Table 2 and Fig. 3.

HaCaT cells = experiment: Hyaluronic acid (HA) production, ELISA of culture supernatant; type: cell-based, human; settings: 24 hours, untreated group = 100
Description: The HaCaT human keratinocyte cell line was obtained from Cell Line Service GmbH (Germany). The cells were cultured in DMEM containing 1% penicillin-streptomycin and 10% fetal bovine serum (FBS) at 37°C in a 5% CO2 incubator, and subculture was performed every 2 to 3 days.
HaCaT cells were seeded at 1.0 × 10^5 cells/well in a 24-well plate and incubated for 24 hours at 37°C in a 5% CO2 incubator. After incubation, the culture medium was replaced with serum-free DMEM, and the peptide prepared in the above Example was applied at concentrations of 50-200 µM, followed by incubation for 24 hours. The supernatant from each experimental group was collected, and the amount of hyaluronic acid (HA) released into the medium was measured. The positive control group was treated with N-acetylglucosamine at a concentration of 10 mM. Measurement of hyaluronic acid production was conducted using a Hyaluronic Acid ELISA Kit (Cusabio Biotechnology Co., Ltd.) following the manufacturer's protocol.

OC[C@H]1O[C@@H](Oc2ccc(O)cc2)[C@H](O)[C@@H](O)[C@@H]1O [Arbutin, arbutin]
Melanin production (%) (B16F10 cells; 500 µg/mL (control) with α-MSH (200 nM)): 59.6±0.8%

Ala-Ala-Gln-Pro-Arg (AAQPR; printed: Ala-Ala-Gln-Pro-Arg)
Melanin production (%) (B16F10 cells; 1 µM with α-MSH (200 nM)): 100.86±4.32%
Melanin production (%) (B16F10 cells; 10 µM with α-MSH (200 nM)): 89.62±2.95%
Melanin production (%) (B16F10 cells; 100 µM with α-MSH (200 nM)): 79.76±4.18%
Procollagen production (%) (NHDF cells; 1 µM): 105.45±3.15%
Procollagen production (%) (NHDF cells; 10 µM): 129.75±9.74%
Procollagen production (%) (NHDF cells; 50 µM): 132.64±13.74%
Procollagen production (%) (NHDF cells; 100 µM): 134.92±1.3%
Hyaluronic acid production (%) (HaCaT cells; 50 µM): 107.14±1.08%
Hyaluronic acid production (%) (HaCaT cells; 100 µM): 130.93±0.59%
Hyaluronic acid production (%) (HaCaT cells; 200 µM): 136.91±6.87%

CC(=O)N[C@H]1C(O)O[C@H](CO)[C@@H](O)[C@@H]1O (stereo partly shown) [NAG, N-acetylglucosamine]
Hyaluronic acid production (%) (HaCaT cells; 10 mM (positive control)): 125.52±1.18%

O=C1O[C@H]([C@@H](O)CO)C(O)=C1O [Asc.A, ascorbic acid]
Procollagen production (%) (NHDF cells; 10 µg/mL (positive control)): 159.45±3.8%
